Measured values as given in publication PMC3705364, “Biochemical and Electrophysiological Characterization of Two Sea Anemone Type 1 Potassium Toxins from a Geographically Distant Population of Bunodosoma caissarum” (Marine Drugs, 2013).
Where a SMILES comes first, the peptide text is derived from it. Bridges are numbered along the chain shown (N, C = ends).

How the values were obtained:
[1] = target: T1, rKV1.1 (Rattus norvegicus, UniProt P10499); assay: Two-electrode voltage-clamp, X. laevis oocytes expressing rKV1.1; type: cell-based; details: mean ± standard error
T1 construct: expressed in transfected cells; host or cells: Xenopus laevis oocytes injected with cRNA
Experimental: (§1) Stage V–VI of X. laevis oocytes were harvested by partial ovariectomy under anesthesia (3-aminobenzoic acid ethyl ester methanesulfonate salt, 0.5 g/L from Sigma-Aldrich Co., Saint Louis, MO, USA). The oocytes were defolliculated for 2 h by treatment with 2 mg/mL collagenase (Sigma-Aldrich Co., Saint Louis, MO, USA) in Ca^2+ free ND96 solution (in mM: 96 NaCl; 2 KCl; 1 MgCl2; 5 HEPES adjusted pH 7.4). For the expression of KV channels (KV1.1–KV1.6, KV2.1, KV3.1, KV4.2, KV4.3, hERG and the insect channel Shaker IR), the linearized plasmids were transcribed using the T7 or SP6 mMessage-mMachine transcription kit (Ambion, Austin, TX, USA). Oocytes were injected with 50 nL of cRNA at a concentration of 1 ng/nL using a microinjector (Drummond Scientific, Broomall, PA, USA). The oocytes were maintained in a ND96 solution (in mM: 96 NaCl, 2 KCl, 1.8 CaCl2, 2 MgCl2 and 5 HEPES; adjusted pH 7.4), supplemented with 50 µg/mL gentamicin sulfate.
(§2) Two-electrode voltage-clamp recordings were performed at room temperature (18–22 °C) using a Geneclamp 500 amplifier (Molecular Devices, Sunnyvale, CA, USA) controlled by a pClamp data acquisition system (Axon Instruments, Union City, CA, USA). Whole-cell currents from oocytes were recorded from 1 to 3 days after injection. Bath solution was the same ND96 solution described above. Voltage and current electrodes were filled with 3 M KCl. Resistances of both electrodes were kept between 0.8 and 1.0 ΩM. The elicited currents were filtered at 500 Hz using a four-pole lowpass Bessel filter. Leak subtraction was performed using a −P/4 protocol. KV1.1–KV1.6 and Shaker IR currents were evoked by 500 ms depolarizations to 0 mV, followed by a 500 ms pulse to −50 mV, from a holding potential of −90 mV. Current traces of hERG channels were elicited by applying a +40 mV prepulse for 2 s, followed by a step to −120 mV for 2 s. KV3.1, KV 4.2 and KV4.3 currents were elicited by 500 ms pulses to +20 mV from a holding potential of −90 mV. To assess the concentration-response relationships, data were fitted with the Hill equation: y = 100/[1 + (EC50/[toxin])h] (1) where y is the amplitude of the toxin-induced effect, EC50 is the toxin concentration at half maximal efficacy, [toxin] is the toxin concentration and h is the Hill coefficient. In order to investigate the current-voltage relationship, current traces were evoked by 10 mV depolarization steps from a holding potential of −90 mV. […]
(§3) Comparison of two sample means was made using a paired Student’s t test (p < 0.05). […] All data were analyzed using Clampfit 10.3 (Molecular Devices, Sunnyvale, CA, USA) and Origin 7.5 software (Origin Lab., Northampton, MA, USA).

[2] = target: T2, rKV1.2 (Rattus norvegicus, UniProt P63142); assay: Two-electrode voltage-clamp, X. laevis oocytes expressing rKV1.2; type: cell-based
T2 construct: expressed in transfected cells; host or cells: Xenopus laevis oocytes injected with cRNA
Experimental: as §1, §2, §3

[3] = target: T3, rKV1.6 (Rattus norvegicus, UniProt P17659); assay: Two-electrode voltage-clamp, X. laevis oocytes expressing rKV1.6; type: cell-based; details: mean ± standard error
T3 construct: expressed in transfected cells; host or cells: Xenopus laevis oocytes injected with cRNA
Experimental: as §1, §2, §3

[4] = target: T4, Shaker IR (Drosophila melanogaster, UniProt P08510, DEL6-46); assay: Two-electrode voltage-clamp, X. laevis oocytes expressing Shaker IR; type: cell-based, insect; details: mean ± standard error
T4 construct: expressed in transfected cells; host or cells: Xenopus laevis oocytes injected with cRNA
Experimental: as §1, §2, §3

[5] = tested on: KV1.1–KV1.6, KV2.1, KV3.1, KV4.2, KV4.3, hERG and Shaker IR; assay: Electrophysiological screening on 12 cloned KV channel isoforms in X. laevis oocytes; type: cell-based, rat, human, insect
Experimental: The pharmacological profile of BcsTx-1 and -2 were determined on a wide range of twelve KV channels (rKV1.1, rKV1.2, hKV1.3, rKV1.4, rKV1.5, rKV1.6, rKV2.1, rKV3.1, rKV4.2, rKV4.3, hERG and the insect channel Shaker IR; r: rat and h: human). Channels were expressed in X. laevis oocytes, and their currents were recorded by using two-electrode voltage-clamp technique. BcsTx1 (0.5 µM) inhibited rKv1.1, rKv1.2, rKv1.3, rKv1.6 and Shaker IR channels with 44% ± 2%, 100%, 100%, 88% ± 3% and 64% ± 4%, respectively (Figure 6). […] Type 1 toxins, such as BgK and ShK, have been extensively characterized. […] Some of the other type 1 toxins were indirectly assayed by competitive inhibition of the binding of ^125I-dendrotoxins, allowing the conclusion that they will show activity on KV1.1, KV1.2 and/or KV1.6, since dendrotoxins only block the current of these KV channels. […] Thus, it is worth mentioning that our work represents the first electrophysiological characterization of type 1 sea anemone toxin activity on cloned Shaker IR insect channel.
as §1
Two-electrode voltage-clamp recordings were performed at room temperature (18–22 °C) using a Geneclamp 500 amplifier (Molecular Devices, Sunnyvale, CA, USA) controlled by a pClamp data acquisition system (Axon Instruments, Union City, CA, USA). Whole-cell currents from oocytes were recorded from 1 to 3 days after injection. Bath solution was the same ND96 solution described above. Voltage and current electrodes were filled with 3 M KCl. Resistances of both electrodes were kept between 0.8 and 1.0 ΩM. The elicited currents were filtered at 500 Hz using a four-pole lowpass Bessel filter. Leak subtraction was performed using a −P/4 protocol. KV1.1–KV1.6 and Shaker IR currents were evoked by 500 ms depolarizations to 0 mV, followed by a 500 ms pulse to −50 mV, from a holding potential of −90 mV. Current traces of hERG channels were elicited by applying a +40 mV prepulse for 2 s, followed by a step to −120 mV for 2 s. KV3.1, KV 4.2 and KV4.3 currents were elicited by 500 ms pulses to +20 mV from a holding potential of −90 mV. To assess the concentration-response relationships, data were fitted with the Hill equation: y = 100/[1 + (EC50/[toxin])h] (1) where y is the amplitude of the toxin-induced effect, EC50 is the toxin concentration at half maximal efficacy, [toxin] is the toxin concentration and h is the Hill coefficient. In order to investigate the current-voltage relationship, current traces were evoked by 10 mV depolarization steps from a holding potential of −90 mV. The activation curves were fitted with a Boltzmann relationship of the form: 1/(1 + e^[−(V − V^1/2)/^S^]) (2) where V1/2 is the voltage for half-maximal activation and s is the slope factor. The activation kinetics were obtained by mono-exponential fits to the raw current traces.

[6] = target: T5, hKV1.3 (Homo sapiens, UniProt P22001); assay: Two-electrode voltage-clamp, X. laevis oocytes expressing hKV1.3; type: cell-based; set-up: expressed in transfected cells; host or cells: Xenopus laevis oocytes injected with cRNA
Experimental: as §1, §2, §3

[7] = tested on: KV1.2; details: expressed in Xenopus oocytes; cited from earlier work
Experimental: The pharmacological profile of BcsTx-1 and -2 were determined on a wide range of twelve KV channels (rKV1.1, rKV1.2, hKV1.3, rKV1.4, rKV1.5, rKV1.6, rKV2.1, rKV3.1, rKV4.2, rKV4.3, hERG and the insect channel Shaker IR; r: rat and h: human). Channels were expressed in X. laevis oocytes, and their currents were recorded by using two-electrode voltage-clamp technique. BcsTx1 (0.5 µM) inh ... || In order to characterize the potency and selectivity profile, concentration-response curves were constructed for BcsTx1. […] A concentration-response curve was also constructed to determine the concentration at which BcsTx2 blocked half of the channels.

[8] = target: Shaker IR (insect) (UniProt P08510)
[9] = target: T5, hKV1.3
[10] = target: rKV1.1 (rat) (UniProt P10499)
[11] = target: rKV1.2 (rat) (UniProt P63142)
[12] = target: rKV1.6 (rat) (UniProt P17659)
[13] = target: Shaker IR (insect) (UniProt P08510); remark: listed apart in the source
[14] = target: T5, hKV1.3; remark: listed apart in the source
[15] = target: rKV1.1 (rat) (UniProt P10499); remark: listed apart in the source
[16] = target: rKV1.2 (rat) (UniProt P63142); remark: listed apart in the source
[17] = target: rKV1.6 (rat) (UniProt P17659); remark: listed apart in the source
[18] = TEVC, 18–22 °C, ND96 pH 7.4, 500 ms depolarizations to 0 mV from −90 mV, Hill fit, n ≥ 3
[19] = TEVC, 18–22 °C, ND96 pH 7.4, 500 ms depolarizations to 0 mV from −90 mV, Hill fit, mean ± standard error, n ≥ 3

T5 sequence (P22001 whole entry): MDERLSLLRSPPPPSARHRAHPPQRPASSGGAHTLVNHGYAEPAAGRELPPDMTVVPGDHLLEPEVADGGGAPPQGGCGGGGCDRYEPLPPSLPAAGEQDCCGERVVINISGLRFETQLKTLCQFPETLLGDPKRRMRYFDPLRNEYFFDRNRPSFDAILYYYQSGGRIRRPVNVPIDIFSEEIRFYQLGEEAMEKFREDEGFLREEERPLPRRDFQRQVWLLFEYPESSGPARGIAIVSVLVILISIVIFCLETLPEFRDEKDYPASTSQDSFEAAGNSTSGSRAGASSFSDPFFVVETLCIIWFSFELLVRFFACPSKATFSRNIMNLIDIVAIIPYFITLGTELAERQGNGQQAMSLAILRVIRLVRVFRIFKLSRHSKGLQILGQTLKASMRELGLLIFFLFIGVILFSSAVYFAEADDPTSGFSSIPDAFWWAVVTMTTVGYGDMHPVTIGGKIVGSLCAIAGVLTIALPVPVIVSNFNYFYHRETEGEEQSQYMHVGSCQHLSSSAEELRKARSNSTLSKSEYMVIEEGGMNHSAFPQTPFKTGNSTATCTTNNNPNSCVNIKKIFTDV
Shaker IR (insect), sequence (P08510 whole entry): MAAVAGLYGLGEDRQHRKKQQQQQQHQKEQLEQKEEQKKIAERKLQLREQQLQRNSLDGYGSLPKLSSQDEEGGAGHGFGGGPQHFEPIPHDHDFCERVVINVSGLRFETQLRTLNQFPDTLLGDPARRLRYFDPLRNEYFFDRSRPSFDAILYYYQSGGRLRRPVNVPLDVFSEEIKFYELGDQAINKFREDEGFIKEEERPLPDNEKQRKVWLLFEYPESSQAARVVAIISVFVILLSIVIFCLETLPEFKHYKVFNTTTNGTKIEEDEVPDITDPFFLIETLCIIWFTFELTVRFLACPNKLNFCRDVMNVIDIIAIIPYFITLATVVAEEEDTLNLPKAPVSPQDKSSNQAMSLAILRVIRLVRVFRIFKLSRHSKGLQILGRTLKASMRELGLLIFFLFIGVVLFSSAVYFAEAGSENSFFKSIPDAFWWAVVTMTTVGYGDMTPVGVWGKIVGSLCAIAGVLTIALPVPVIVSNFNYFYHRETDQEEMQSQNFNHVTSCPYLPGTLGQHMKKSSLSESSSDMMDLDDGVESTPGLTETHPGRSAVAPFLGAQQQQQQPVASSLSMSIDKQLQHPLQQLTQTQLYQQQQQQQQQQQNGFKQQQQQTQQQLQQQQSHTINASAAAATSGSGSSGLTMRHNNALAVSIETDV
rKV1.2 (rat), sequence (P63142 whole entry): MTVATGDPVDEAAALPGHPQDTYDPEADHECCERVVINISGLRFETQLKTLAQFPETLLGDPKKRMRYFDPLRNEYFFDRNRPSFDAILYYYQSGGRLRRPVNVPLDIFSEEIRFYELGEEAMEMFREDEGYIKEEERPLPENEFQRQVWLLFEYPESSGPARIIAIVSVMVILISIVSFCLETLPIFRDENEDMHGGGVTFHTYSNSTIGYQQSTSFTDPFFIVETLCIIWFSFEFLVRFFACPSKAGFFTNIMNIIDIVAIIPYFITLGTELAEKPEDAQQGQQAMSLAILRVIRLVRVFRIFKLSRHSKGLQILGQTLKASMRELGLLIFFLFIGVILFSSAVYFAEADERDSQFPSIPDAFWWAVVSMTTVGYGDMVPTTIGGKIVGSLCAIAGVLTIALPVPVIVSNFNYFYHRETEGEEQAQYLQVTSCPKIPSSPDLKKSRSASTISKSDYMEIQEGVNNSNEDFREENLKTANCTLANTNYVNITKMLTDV
T2 sequence (P63142 whole entry): as above
T1 sequence (P10499 whole entry): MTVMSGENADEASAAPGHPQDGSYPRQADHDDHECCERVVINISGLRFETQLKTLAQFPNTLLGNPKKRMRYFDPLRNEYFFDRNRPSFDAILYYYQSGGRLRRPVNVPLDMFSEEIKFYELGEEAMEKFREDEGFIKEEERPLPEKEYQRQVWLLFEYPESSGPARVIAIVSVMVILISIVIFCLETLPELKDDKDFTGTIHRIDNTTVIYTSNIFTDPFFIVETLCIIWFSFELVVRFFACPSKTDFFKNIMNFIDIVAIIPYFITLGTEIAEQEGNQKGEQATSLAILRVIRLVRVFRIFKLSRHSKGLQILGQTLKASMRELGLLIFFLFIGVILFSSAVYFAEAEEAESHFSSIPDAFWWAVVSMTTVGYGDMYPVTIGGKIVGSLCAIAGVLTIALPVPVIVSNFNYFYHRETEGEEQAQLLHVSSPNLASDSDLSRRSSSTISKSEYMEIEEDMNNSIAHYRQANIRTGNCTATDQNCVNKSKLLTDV
rKV1.1 (rat), sequence (P10499 whole entry): as above
T4 sequence (P08510 with tags, fused parts or gaps DEL6-46): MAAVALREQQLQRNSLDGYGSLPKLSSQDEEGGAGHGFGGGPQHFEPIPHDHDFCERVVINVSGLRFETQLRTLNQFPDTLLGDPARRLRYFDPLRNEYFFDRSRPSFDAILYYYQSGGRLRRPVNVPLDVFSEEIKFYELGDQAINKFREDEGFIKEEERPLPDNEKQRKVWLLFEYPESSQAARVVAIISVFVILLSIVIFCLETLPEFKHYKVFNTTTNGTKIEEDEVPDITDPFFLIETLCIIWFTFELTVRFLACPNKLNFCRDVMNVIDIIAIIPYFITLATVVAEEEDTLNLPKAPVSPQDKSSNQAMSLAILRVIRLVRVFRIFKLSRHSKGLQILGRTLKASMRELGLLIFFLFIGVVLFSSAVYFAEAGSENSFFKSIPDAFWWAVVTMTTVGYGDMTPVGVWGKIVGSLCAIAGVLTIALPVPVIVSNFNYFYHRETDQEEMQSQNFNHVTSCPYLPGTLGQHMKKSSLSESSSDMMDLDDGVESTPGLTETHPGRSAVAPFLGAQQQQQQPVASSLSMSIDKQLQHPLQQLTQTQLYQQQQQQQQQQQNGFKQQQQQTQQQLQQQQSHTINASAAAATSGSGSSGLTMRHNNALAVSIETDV
rKV1.6 (rat), sequence (P17659 whole entry): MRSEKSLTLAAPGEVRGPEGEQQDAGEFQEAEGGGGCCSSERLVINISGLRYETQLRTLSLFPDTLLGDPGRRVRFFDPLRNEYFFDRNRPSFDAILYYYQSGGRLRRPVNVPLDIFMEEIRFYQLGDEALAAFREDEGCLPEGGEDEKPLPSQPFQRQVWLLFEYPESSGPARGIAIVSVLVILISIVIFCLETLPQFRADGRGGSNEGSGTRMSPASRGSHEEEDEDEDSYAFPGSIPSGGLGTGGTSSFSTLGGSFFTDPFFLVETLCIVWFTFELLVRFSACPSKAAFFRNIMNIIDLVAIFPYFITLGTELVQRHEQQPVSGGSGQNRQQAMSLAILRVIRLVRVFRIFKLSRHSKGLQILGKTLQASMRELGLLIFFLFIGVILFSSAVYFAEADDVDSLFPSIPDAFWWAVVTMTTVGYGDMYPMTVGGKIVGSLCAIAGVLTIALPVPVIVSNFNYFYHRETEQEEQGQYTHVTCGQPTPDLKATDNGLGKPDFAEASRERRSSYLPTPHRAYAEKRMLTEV
T3 sequence (P17659 whole entry): as above

`CC[C@H](C)[C@@H]1NC(=O)[C@@H](NC(=O)[C@H](C)N)CSSC[C@@H](C(=O)N[C@@H](Cc2c[nH]cn2)C(=O)O)NC(=O)[C@H](CC(C)C)NC(=O)CNC(=O)[C@@H]2CSSC[C@@H]3NC(=O)[C@H](CO)NC(=O)CNC(=O)CNC(=O)[C@H](CCCCN)NC(=O)[C@H](CCCCN)NC(=O)[C@H](C(C)C)NC(=O)[C@H](Cc4c[nH]cn4)NC(=O)[C@H](CCCCN)NC(=O)[C@H](CSSC[C@H](NC(=O)[C@H](CC(N)=O)NC(=O)[C@H]([C@@H](C)CC)NC(=O)[C@H](CCCNC(=N)N)NC(=O)[C@H](Cc4ccc(O)cc4)NC(=O)[C@H](CCCCN)NC(=O)[C@H](CCC(N)=O)NC(=O)[C@H](CO)NC(=O)[C@H](CC(N)=O)NC(=O)[C@H](CCCCN)NC3=O)C(=O)N[C@@H](C)C(=O)N[C@@H](CCCCN)C(=O)N[C@@H]([C@@H](C)O)C(=O)N2)NC(=O)[C@H]([C@@H](C)O)NC(=O)CNC(=O)[C@H]([C@@H](C)O)NC(=O)[C@@H]2CCCN2C(=O)[C@H](Cc2ccccc2)NC(=O)[C@H](CCCNC(=N)N)NC(=O)[C@H](CC(=O)O)NC1=O` [BcsTx1] (H-ACIDRFPTGTCKHVKKGGSCKNSQKYRINCAKTCGLCH-OH; disulfide 2-37, 11-30, 20-34) gave an inhibition at 0.5 µM ([1]; 0.5 µM, n ≥ 3, read-out: inhibition of rKV1.1 current) of 44%, an IC50 [1, 18] of 405 ± 20.6 nM and an inhibition at 0.5 µM ([2]; 0.5 µM, n ≥ 3, read-out: inhibition of rKV1.2 current) of 100%. For the same compound, the IC50 [2, 19] was 0.03 ± 0.006 nM, the inhibition at 0.5 µM ([3]; 0.5 µM, n ≥ 3, read-out: inhibition of rKV1.6 current) was 88% and the IC50 [3, 18] was 1.31 ± 0.2 nM. The inhibition at 0.5 µM ([4]; 0.5 µM, n ≥ 3, read-out: inhibition of Shaker IR current) was 64%, the IC50 [4, 18] was 248 ± 96 nM and the “selectivity among KV channels (in words)” value ([5]; 0.5 µM, 12 KV isoforms) was “selectively blocks KV1.x channels”. For the same compound, the “potency class on KV channels (in words)” value ([5]; summary of IC50 values, compared with BgK and type 2 toxins) was “within the nanomolar range”, the “affinity/potency order among KV channels (in words)” value ([5]; summary of the electrophysiological characterization) was “high affinity for rKv1.2 over rKv1.6, hKv1.3, Shaker IR and rKv1.1” and the inhibition at 0.5 µM ([6]; 0.5 µM, n ≥ 3, read-out: inhibition of KV1.3 current) was 100%. It also gave an IC50 [6, 19] of 74.1 ± 20.2 nM.

In the case of “AsKs: type 1 toxin from Anemonia viridis / Anemonia sulcata (Swiss-Prot Q9TWG1) (ACKDNFAAATCKHVKENKNCGSQKYATNCAKTCGKC; UniProt Q9TWG1 1-36, looked up)”, the “block of KV1.2 current (in words)” value [7] is listed as “blocker of KV1.2 current”.

“BcsTx1 (from UniProt C0HJC2 1-38) (peptide)” gave an IC50 of block of the channel's K+ current, two-electrode voltage clamp on X. laevis oocytes, concentration-response curve [8] of 248 nM, an IC50 of block of the channel's K+ current, two-electrode voltage clamp on X. laevis oocytes, concentration-response curve [9] of 74.1 nM and an IC50 of block of the channel's K+ current, two-electrode voltage clamp on X. laevis oocytes, concentration-response curve [10] of 405 nM. For the same compound, the IC50 of block of the channel's K+ current, two-electrode voltage clamp on X. laevis oocytes, concentration-response curve [11] was 0.03 nM, the IC50 of block of the channel's K+ current, two-electrode voltage clamp on X. laevis oocytes, concentration-response curve [12] was 1.31 nM and the percent inhibition of the channel's current by 0.5 µM BcsTx1, two-electrode voltage clamp on X. laevis oocytes [13] was 64%. For the same compound, the percent inhibition of the channel's current by 0.5 µM BcsTx1, two-electrode voltage clamp on X. laevis oocytes [14] was 100%, the percent inhibition of the channel's current by 0.5 µM BcsTx1, two-electrode voltage clamp on X. laevis oocytes [15] was 44% and the percent inhibition of the channel's current by 0.5 µM BcsTx1, two-electrode voltage clamp on X. laevis oocytes [16] was 100%. The percent inhibition of the channel's current by 0.5 µM BcsTx1, two-electrode voltage clamp on X. laevis oocytes [17] was 88%.
